Reference: patent US20080176936A1, “Classes of Compounds that Interact with Integrins” (priority 2005, published 2008)

What was measured:
αllbβ3 integrin = molecular target: T1, αllbβ3 integrin (Homo sapiens, UniProt P05106+P08514); test: ELISA: inhibition of binding of αllbβ3 integrin membrane preparation to coated extracellular matrix protein; conditions: human platelet membrane preparation
T1 construct: Human platelet membrane preparations were used as a source of αllbβ3 integrin; from tissue; host or cells: human platelets (membrane preparation)
Procedure: (§1) An ELISA assay based on the published method of Bethert et al., 2000, J Biol Chem 275, 33308-23, was employed.
(§2) Briefly, appropriate microtitre plates were coated with either Fibrinogen or Vitronectin (10 μg/well). These extracellular matrix proteins contain the RGD amino acid sequence that is recognized by αllbβ3 integrin. Human platelet membrane preparations were used as a source of αllbβ3 integrin and the cell line WM-115 was used as a source of αVβ3 integrin. Inhibition of the binding of αllbβ3 integrin containing membrane preparations to the extracellular matrix protein was determined by pre-incubating the platelet membrane preparation with test or control compounds. The binding of the αllbβ3 integrin containing membrane was the quantitated by using a rabbit anti-integrinβ3 antibody, a horse radish peroxidase coupled second antibody and a standard colorimetric detection system.

αVβ3 integrin = molecular target: T2, αVβ3 integrin (Homo sapiens, UniProt P05106+P06756); test: ELISA: inhibition of binding of αVβ3 integrin (source WM-115 cell line) to coated extracellular matrix protein; conditions: WM-115 cell line as integrin source
T2 construct: the cell line WM-115 was used as a source of αVβ3 integrin; endogenous in cells; host or cells: WM-115 cell line
Procedure: as §1, §2

T2 sequence (P06756 31-889 limits assumed): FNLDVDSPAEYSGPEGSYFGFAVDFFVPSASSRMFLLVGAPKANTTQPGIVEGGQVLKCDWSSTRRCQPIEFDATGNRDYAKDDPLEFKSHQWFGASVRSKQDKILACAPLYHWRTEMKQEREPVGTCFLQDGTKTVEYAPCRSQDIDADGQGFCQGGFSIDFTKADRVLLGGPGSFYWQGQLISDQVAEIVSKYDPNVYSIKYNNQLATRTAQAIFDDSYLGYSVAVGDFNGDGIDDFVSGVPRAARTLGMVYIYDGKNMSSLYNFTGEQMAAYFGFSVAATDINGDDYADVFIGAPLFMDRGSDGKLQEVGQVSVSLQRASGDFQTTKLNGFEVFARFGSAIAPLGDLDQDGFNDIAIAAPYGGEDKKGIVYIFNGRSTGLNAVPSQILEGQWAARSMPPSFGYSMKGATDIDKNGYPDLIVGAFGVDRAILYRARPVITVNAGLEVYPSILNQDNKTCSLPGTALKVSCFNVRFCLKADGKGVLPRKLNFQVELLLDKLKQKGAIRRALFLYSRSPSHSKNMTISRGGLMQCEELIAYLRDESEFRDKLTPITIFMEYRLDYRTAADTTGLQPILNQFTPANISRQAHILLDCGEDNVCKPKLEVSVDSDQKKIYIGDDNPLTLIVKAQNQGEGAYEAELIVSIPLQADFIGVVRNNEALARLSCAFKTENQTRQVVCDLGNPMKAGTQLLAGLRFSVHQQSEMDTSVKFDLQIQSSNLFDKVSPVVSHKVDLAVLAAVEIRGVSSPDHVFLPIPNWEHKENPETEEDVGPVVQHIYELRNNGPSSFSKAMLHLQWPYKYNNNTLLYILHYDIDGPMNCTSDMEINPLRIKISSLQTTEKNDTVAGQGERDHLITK
T2 sequence (P06756 891-1048 partner limits assumed): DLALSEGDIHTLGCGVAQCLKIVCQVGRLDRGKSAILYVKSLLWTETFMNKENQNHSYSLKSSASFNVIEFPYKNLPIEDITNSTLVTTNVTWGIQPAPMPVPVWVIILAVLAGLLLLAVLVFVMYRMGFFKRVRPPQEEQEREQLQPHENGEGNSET
T2 sequence (P05106 27-788): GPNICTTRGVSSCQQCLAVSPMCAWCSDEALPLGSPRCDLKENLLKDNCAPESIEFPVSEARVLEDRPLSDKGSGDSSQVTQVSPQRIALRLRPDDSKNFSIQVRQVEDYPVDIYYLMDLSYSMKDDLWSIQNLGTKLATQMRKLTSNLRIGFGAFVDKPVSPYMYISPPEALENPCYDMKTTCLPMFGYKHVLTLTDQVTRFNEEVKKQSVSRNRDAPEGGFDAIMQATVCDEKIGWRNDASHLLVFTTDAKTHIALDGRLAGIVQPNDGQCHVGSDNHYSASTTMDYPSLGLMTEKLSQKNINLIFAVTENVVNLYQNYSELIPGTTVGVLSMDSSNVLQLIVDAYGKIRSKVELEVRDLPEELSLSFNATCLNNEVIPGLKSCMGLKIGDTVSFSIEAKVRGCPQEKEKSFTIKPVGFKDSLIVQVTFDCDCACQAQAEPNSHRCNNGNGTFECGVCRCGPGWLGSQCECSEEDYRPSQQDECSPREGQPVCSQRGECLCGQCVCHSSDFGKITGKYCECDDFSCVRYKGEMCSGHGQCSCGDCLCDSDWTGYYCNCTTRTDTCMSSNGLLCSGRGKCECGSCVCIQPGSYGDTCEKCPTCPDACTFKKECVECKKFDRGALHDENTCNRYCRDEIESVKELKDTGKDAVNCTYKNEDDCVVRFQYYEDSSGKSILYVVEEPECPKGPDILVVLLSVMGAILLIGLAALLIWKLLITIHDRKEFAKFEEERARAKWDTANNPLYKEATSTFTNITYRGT
T1 sequence (P08514 32-887 limits assumed): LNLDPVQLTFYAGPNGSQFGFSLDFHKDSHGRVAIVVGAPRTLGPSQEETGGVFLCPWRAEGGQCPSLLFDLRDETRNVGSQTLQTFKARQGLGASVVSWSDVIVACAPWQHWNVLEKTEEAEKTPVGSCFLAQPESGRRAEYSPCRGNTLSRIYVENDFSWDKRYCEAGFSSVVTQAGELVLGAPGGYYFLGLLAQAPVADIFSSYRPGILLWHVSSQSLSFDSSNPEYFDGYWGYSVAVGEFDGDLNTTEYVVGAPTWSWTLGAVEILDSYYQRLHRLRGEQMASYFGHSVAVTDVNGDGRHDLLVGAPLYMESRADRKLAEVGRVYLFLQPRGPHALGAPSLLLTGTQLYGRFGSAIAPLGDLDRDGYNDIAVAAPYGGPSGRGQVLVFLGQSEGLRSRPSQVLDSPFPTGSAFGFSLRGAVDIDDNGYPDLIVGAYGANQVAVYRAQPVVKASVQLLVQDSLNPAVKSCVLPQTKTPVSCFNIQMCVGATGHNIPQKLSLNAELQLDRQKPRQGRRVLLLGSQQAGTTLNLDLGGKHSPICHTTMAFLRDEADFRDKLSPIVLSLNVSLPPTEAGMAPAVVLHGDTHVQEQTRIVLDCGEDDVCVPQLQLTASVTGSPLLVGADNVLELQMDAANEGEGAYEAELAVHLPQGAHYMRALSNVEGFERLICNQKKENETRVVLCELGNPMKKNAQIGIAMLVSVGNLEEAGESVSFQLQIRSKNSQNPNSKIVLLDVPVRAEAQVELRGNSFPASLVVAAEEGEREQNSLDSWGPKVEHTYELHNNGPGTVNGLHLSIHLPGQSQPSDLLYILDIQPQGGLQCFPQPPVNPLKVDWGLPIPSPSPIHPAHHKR
T1 sequence (P08514 891-1039 partner limits assumed): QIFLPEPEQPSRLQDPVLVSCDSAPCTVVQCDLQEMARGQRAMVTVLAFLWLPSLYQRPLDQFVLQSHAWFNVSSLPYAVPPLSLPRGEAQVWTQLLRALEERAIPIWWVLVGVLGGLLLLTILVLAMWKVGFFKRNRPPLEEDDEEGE
T1 sequence (P05106 27-788): as the sequence (P05106 27-788) above

Row | Compound | INHIBITION @ 250 uM RECEPTOR allBb3 SUBSTRATE FIBRINOGEN (αllbβ3 integrin) | INHIBITION 250 uM RECEPTOR allBb3 SUBSTRATE VITRONECTIN (αllbβ3 integrin) | INHIBITION 250 uM RECEPTOR aVb3 SUBSTRATE FIBRINOGEN (αVβ3 integrin)
1 | COC1OC(COCc2ccc(Br)cc2)C(O)C(OCc2cccc(N)c2)C1NC(=O)CCC(=O)O (single isomer, unassigned) [Compound 25] | + (36% to 60% inhibition at 250 micromolar) | +++ (81% to 100% inhibition at 250 micromolar) | +++ (81% to 100% inhibition at 250 micromolar)
2 | Nc1cccc(COC2C(O)C(COCc3ccc(Br)cc3)OC(O)C2NC(=O)CCC(=O)O)c1 (single isomer, unassigned) [Compound 26] | + (36% to 60% inhibition at 250 micromolar) | +++ (81% to 100% inhibition at 250 micromolar) | ++ (61% to 80% inhibition at 250 micromolar)
3 | COC1OC(COCC(=O)O)C(O)C(OCc2cccc(N)c2)C1NC(=O)c1ccccc1 (single isomer, unassigned) [Compound 27] | ++ (61% to 80% inhibition at 250 micromolar) | +++ (81% to 100% inhibition at 250 micromolar) | +++ (81% to 100% inhibition at 250 micromolar)
4 | COC1OC(COCC(=O)O)C(O)C(OCc2cccc(N)c2)C1NC(=O)c1ccccc1 (single isomer, unassigned) [Compound 28] | + (36% to 60% inhibition at 250 micromolar) | +++ (81% to 100% inhibition at 250 micromolar) | +++ (81% to 100% inhibition at 250 micromolar)
5 | Nc1cccc(COC2C(O)C(COCC(=O)O)OC(O)C2NC(=O)c2ccccc2)c1 (single isomer, unassigned) [Compound 29] | ++ (61% to 80% inhibition at 250 micromolar) | +++ (81% to 100% inhibition at 250 micromolar) | +++ (81% to 100% inhibition at 250 micromolar)
6 | COC1OC(COCc2ccc(C(=O)O)cc2)C(O)C(OCc2cccc(N)c2)C1NC(=O)c1ccc(Cl)cc1 (single isomer, unassigned) [Compound 30] | ++ (61% to 80% inhibition at 250 micromolar) | +++ (81% to 100% inhibition at 250 micromolar) | +++ (81% to 100% inhibition at 250 micromolar)
7 | COC1O[C@H](COCc2ccc(C(=O)O)cc2)[C@@H](O)[C@H](OCc2cccc(N)c2)[C@H]1NC(=O)c1ccc(Cl)cc1 (single isomer, unassigned) [Compound 31] | +++ (81% to 100% inhibition at 250 micromolar) | +++ (81% to 100% inhibition at 250 micromolar) | +++ (81% to 100% inhibition at 250 micromolar)
8 | CCOC1O[C@H](COCC(=O)O)[C@@H](O)[C@H](OCc2ccccc2)[C@H]1NC(=O)c1cccc(N)c1 (single isomer, unassigned) [Compound 32] | + (36% to 60% inhibition at 250 micromolar) | +++ (81% to 100% inhibition at 250 micromolar) | − (0% to 35% inhibition at 250 micromolar)
9 | Nc1cccc(C(=O)N[C@H]2C(O)O[C@H](COCC(=O)O)[C@@H](O)[C@@H]2OCc2ccccc2)c1 (single isomer, unassigned) [Compound 33] | ++ (61% to 80% inhibition at 250 micromolar) | − (0% to 35% inhibition at 250 micromolar) | − (0% to 35% inhibition at 250 micromolar)
10 | Nc1cccc(C(=O)N[C@H]2C(O)O[C@H](COCC(=O)O)[C@@H](O)[C@@H]2OCc2ccccc2)c1 (single isomer, unassigned) [Compound 34] | + (36% to 60% inhibition at 250 micromolar) | +++ (81% to 100% inhibition at 250 micromolar) | +++ (81% to 100% inhibition at 250 micromolar)
11 | CCOC1O[C@H](COCc2ccc(C(=O)O)cc2)[C@@H](O)[C@H](OCc2ccccc2)[C@H]1NC(=O)c1cccc(N)c1 (single isomer, unassigned) [Compound 35] | + (36% to 60% inhibition at 250 micromolar) | +++ (81% to 100% inhibition at 250 micromolar) | +++ (81% to 100% inhibition at 250 micromolar)
12 | CCOC1O[C@H](COCc2cccc(N)c2)[C@@H](O)[C@H](OCc2ccccc2)[C@H]1NC(=O)c1ccc(C(=O)O)cc1 (single isomer, unassigned) [Compound 36] | + (36% to 60% inhibition at 250 micromolar) | +++ (81% to 100% inhibition at 250 micromolar) | +++ (81% to 100% inhibition at 250 micromolar)
13 | CCOC1O[C@H](COCc2cccc(N)c2)[C@@H](O)[C@H](OCc2ccccc2)[C@H]1NC(=O)c1ccc(C(=O)O)cc1 (single isomer, unassigned) [Compound 37] | + (36% to 60% inhibition at 250 micromolar) | +++ (81% to 100% inhibition at 250 micromolar) | +++ (81% to 100% inhibition at 250 micromolar)
14 | CCOC1O[C@H](COCC(=O)O)[C@@H](O)[C@H](OCc2ccc(Br)cc2)[C@H]1NC(=O)c1cccc(N)c1 (single isomer, unassigned) [Compound 38] | ++ (61% to 80% inhibition at 250 micromolar) | +++ (81% to 100% inhibition at 250 micromolar) | +++ (81% to 100% inhibition at 250 micromolar)
15 | CCOC1O[C@H](COCC(=O)O)[C@@H](O)[C@H](OCc2ccc(Br)cc2)[C@H]1NC(=O)c1cccc(N)c1 (single isomer, unassigned) [Compound 39] | + (36% to 60% inhibition at 250 micromolar) | +++ (81% to 100% inhibition at 250 micromolar) | +++ (81% to 100% inhibition at 250 micromolar)
16 | CCOC1O[C@H](COCc2ccc(C(=O)O)cc2)[C@@H](O)[C@H](OCc2ccc(Br)cc2)[C@H]1NC(=O)c1cccc(N)c1 (single isomer, unassigned) [Compound 40] | +++ (81% to 100% inhibition at 250 micromolar) | +++ (81% to 100% inhibition at 250 micromolar) | +++ (81% to 100% inhibition at 250 micromolar)
17 | CCOC1O[C@H](COCc2ccc(C(=O)O)cc2)[C@@H](O)[C@H](OCc2ccc(Br)cc2)[C@H]1NC(=O)c1cccc(N)c1 (single isomer, unassigned) [Compound 41] | + (36% to 60% inhibition at 250 micromolar) | ++ (61% to 80% inhibition at 250 micromolar) | + (36% to 60% inhibition at 250 micromolar)
18 | Nc1cccc(C(=O)N[C@H]2C(O)O[C@H](COCc3ccc(C(=O)O)cc3)[C@@H](O)[C@@H]2OCc2ccc(Br)cc2)c1 (single isomer, unassigned) [Compound 42] | + (36% to 60% inhibition at 250 micromolar) | +++ (81% to 100% inhibition at 250 micromolar) | − (0% to 35% inhibition at 250 micromolar)
19 | CCOC1O[C@H](COCc2cccc(N)c2)[C@@H](O)[C@H](OCc2ccc(Br)cc2)[C@H]1NC(=O)CCC(=O)O (single isomer, unassigned) [Compound 44] | ++ (61% to 80% inhibition at 250 micromolar) | − (0% to 35% inhibition at 250 micromolar) | + (36% to 60% inhibition at 250 micromolar)
20 | CCOC1O[C@H](COCc2cccc(N)c2)[C@@H](O)[C@H](OCc2ccc(Br)cc2)[C@H]1NC(=O)CCC(=O)O (single isomer, unassigned) [Compound 45] | ++ (61% to 80% inhibition at 250 micromolar) | +++ (81% to 100% inhibition at 250 micromolar) | +++ (81% to 100% inhibition at 250 micromolar)
21 | Nc1cccc(COC[C@H]2OC(O)[C@H](NC(=O)CCC(=O)O)[C@@H](OCc3ccc(Br)cc3)[C@@H]2O)c1 (single isomer, unassigned) [Compound 46] | + (36% to 60% inhibition at 250 micromolar) | +++ (81% to 100% inhibition at 250 micromolar) | +++ (81% to 100% inhibition at 250 micromolar)
22 | Nc1cccc(COC[C@H]2OC(O)[C@H](NC(=O)CCC(=O)O)[C@@H](OCc3ccc(Br)cc3)[C@@H]2O)c1 (single isomer, unassigned) [Compound 47] | + (36% to 60% inhibition at 250 micromolar) | +++ (81% to 100% inhibition at 250 micromolar) | − (0% to 35% inhibition at 250 micromolar)
